# Assay results reported in US20260294864A1, “PHARMACEUTICAL COMPOSITION FOR THE TREATMENT AND PREVENTION OF HPV” (NP1 SRL, priority 2022, published 2026).
# Tests used:
# glioma cells = conditions: wound-healing and Boyden Chamber assays (Lu J et al 2010); cited from earlier work
# gastric cancer cells = conditions: wound-healing and Boyden Chamber assays (Ho H H et al 2010); cited from earlier work
# HeLa cells = assay: Anti-clonogenic activity on HeLa cells (plating efficiency assay / live cell imaging); format: cell-based, human; conditions: for clonal inhibition in combination with Apigenin: 50 μM combined with Apigenin 25 μM; for clonal inhibition in combination with Apigenin / end point clonal assay, clonal inhibition alone: FIG. 9-11; for clonal inhibition in combination with Galangin: 50 μM combined with Galangin 12.5 μM, FIG. 9-10; for end point clonal assay, clonal inhibition alone / Anti-clonal effect: 50 μM; for end point clonal assay, clonal inhibition alone: administered alone; for Anti-clonal effect: isolated, FIG. 1
# Experimental: Panel C and D: diagrammatic topographical maps of treatments and growth conditions on plates A and B respectively.
# Panel A. Hela cells were challenged with serial twofold dilutions of 50 μM Luteolin (in columns 1-6) and 100 μM Galangin (columns 7-10). Hela control untreated cells in columns 11-12.
# (§1) A total of 6 cell lines, outlined in Table 3, were used for this study. The cell lines were obtained from Research Centres of cell biology in Italy, United Kingdom and Germany. This research raised no ethical concern being based on entirely in vitro experiments using no patients' derived information or material. In compliance with National and International ethical rules, no informed consent is needed.
# (§2) HeLa cells are the oldest continuous cell lines and were originally derived from a HPV18 positive metastatic cervical carcinoma (Scherer W F et al 1953). Siha cells are an epithelioid like cell line derived from a HPV16-positive invasive cervical squamous carcinoma (Friedel F et al 1970). Ca-Ski cells are a line harboring multiple copy of transcriptionally active HPV16 genomes (Baker C C et al 1984). Both Hela and Siha were a kind gift of prof MS Campo, The Beatson Institute for Cancer Research, Glasgow, Scotland. These two cell lines because of their versatility and ease of use were used for most of experiments reported. Ca-Ski cells were obtained through the courtesy of prof. Matthias Durst, at the Deutsch Krebsforschungzentrum—Heidelberg, FRG. These cells used together with Siha provide a model for the genetic instability and variability of cervical cancers. HK-168 is an immortalized, non-tumorigenic, continuous cell line derived from human skin keratinocytes in vitro transformed with whole HPV16 genome (De Marco F et al 2007). This cell line is reputed to recapitulate le biological features of transformed dysplastic cells and was used in preliminary experiments to set the experimental dosages and conditions. The ME-180 cells are a cell line harboring a few, transcriptionally active, copies of HPV68 and provide an in vitro model for dysplastic/neoplastic lesions induced by HPV with Intermediate oncogenic Risk (Yee C C et al 1985). The HaCaT cells, derived from a solar skin lesion by Petra Boukamp et al (1988) are here used as an in vitro equivalent of Ultra-Violet induced pre-neoplastic epithelial cells to rule out possible direct toxic effects of polyphenols. Both HaCaT and ME-180, were kindly donated by Prof. Matthias Durst. Hela, Siha, Ca-Ski, ME-180 and HaCaT were all grown in high glucose DMEM supplemented with 10% fetal calf serum (FCS). The HK-168 cells, which retained the ability to terminally differentiate under high Ca^2+ and FCS concentrations, were grown in K-SFM, a chemically defined medium supplemented with human EGF and bovine pituitary extract (ThermoFisher Scientific, Life Technologies, Monza—MI). Each cell line was sub-cultured twice a week at the appropriate split ratio according to the specific proliferative index. In no case antibiotics or antimycotics were added to the culture media. For the present study, all cell lines were retrieved from an in-house cell archive facility.
# The anti-clonogenic activity was evaluated both by the current standard qualitative plating efficiency assay and by quantitative live cell imaging analysis ([…] S3 Live Cell Analysis Imaging System—Sartorius Welwyn Garden City, Hertfordshire, UK).
# ME-180 cells = assay: Anti-clonogenic activity on ME-180 cells; format: cell-based, human; conditions: compared with HeLa data of FIG. 10
# Excerpt: (§3) HeLa cells are the oldest continuous cell lines and were originally derived from a HPV18 positive metastatic cervical carcinoma (Scherer W F et al 1953). Siha cells are an epithelioid like cell line derived from a HPV16-positive invasive cervical squamous carcinoma (Friedel F et al 1970). Ca-Ski cells are a line harboring multiple copy of transcriptionally active HPV16 genomes (Baker C C et al 1984). Both Hela and Siha were a kind gift of prof MS Campo, The Beatson Institute for Cancer Research, Glasgow, Scotland. These two cell lines because of their versatility and ease of use were used for most of experiments reported. Ca-Ski cells were obtained through the courtesy of prof. Matthias Durst, at the Deutsch Krebsforschungzentrum—Heidelberg, FRG. […]
# (§4) The anti-clonogenic activity was evaluated both by the current standard qualitative plating efficiency assay and by quantitative live cell imaging analysis (INCUCYTE S3 Live Cell Analysis Imaging System—Sartorius Welwyn Garden City, Hertfordshire, UK). […] The anti-clonogenic activity of the treatments was evaluated using the colony forming units (CFU) of treated versus control cultures. […] For quantitative evaluation cells were seeded in 96-well microplates at the above density and condition and allowed to grow the subsequent 8-day incubation in the INCUCYTE S3 Imaging System. […]
# HPV transformed cells [1] = assay: Anti-clonal effect on HPV transformed cells (cell line not stated); format: cell-based, human; conditions: for clonal inhibition in combination / anticlonogenic / anti-clonal effect: summary statement; for anticlonogenic / anti-clonal effect / IC50 / IRR (inhibitory relative rate): isolated compound; for IC50: Homo sapiens, minimal concentration reducing 50% of CFU of treated versus control, read-out: CID50 (50% clonal inhibitory dose), isolated polyphenols; for IRR (inhibitory relative rate): reverse ratio of CID50 to the reference CID50 of Quercetin (=1)
# Experimental: The inhibitory relative rate (IRR) (fourth column) provides an efficacy ranking of molecules.
# The anti-clonogenic activity was evaluated both by the current standard qualitative plating efficiency assay and by quantitative live cell imaging analysis (INCUCYTE S3 Live Cell Analysis Imaging System—Sartorius Welwyn Garden City, Hertfordshire, UK). For qualitative plating efficiency assay cells were seeded at ‘clonal’ density (i.e., 0.5 cell/mm^2) either in medium containing the testing molecules or with plain medium and incubated without any further manipulation. After 9-14 days, according to the cell line specific proliferative index, the cultures were decanted and stained with 0.2% CV/methanol for 5 min at room temperature. All conditions were tested in triplicates in a 6-well culture plate. The anti-clonogenic activity of the treatments was evaluated using the colony forming units (CFU) of treated versus control cultures. The minimal concentration which could reduce 50% of the CFU of treated versus control culture was defined as colony-forming Inhibitory concentration (CID50). For quantitative evaluation cells were seeded in 96-well microplates at the above density and condition and allowed to grow the subsequent 8-day incubation in the INCUCYTE S3 Imaging System. Images were acquired at 12-hours intervals and colony formation and percentage of growth area covered (confluency) were then monitored through automated image analysis. The analysis parameters were as follows: segmentation adjustment=0.4; hole fill <5,000 μm^2; adjusted pixel=−2.
# Ca-Ski cells = assay: Anti-clonogenic activity on Ca-Ski cells; format: cell-based, human; conditions: compared with HeLa data of FIG. 10
# Excerpt: as §3, §4
# Siha cells [2] = assay: Anti-clonogenic activity on SiHa cells (plating efficiency assay / live cell imaging); format: cell-based, human; conditions: for inhibition at 25 µM: Homo sapiens, single compound, 24 hours treatment then wash-out, FIG. 12, read-out: clonal inhibition
# Experimental: In this experiment Kaempferol and Apigenin were administered to Siha cells at decremental concentrations, either in combination or alone, as shown in the topographical map (in panel C). […] Histograms in Panel B depict the number of colonies per well as evaluated by visual inspection and count.
# The Histograms in Panel B depict the number of colonies per well as evaluated by visual inspection and count. • In Panel C a topographical map of plate treatments. Each condition was assayed in duplicate.
# Kaempferol, Galangin, Luteolin and their combination were administered to SiHa cells at the concentrations of 25 μM each and of 12,5/12,5/6,25 μM for their combination. Treatments were allowed to stay on cells either for 2 or 4/8/16/24 hours. After that, treatments were washed out, cells washed two times with PBS, replenished with fresh medium and the anti-clonal effect was then monitored by live cell image analysis.
# as §1, §2
# Siha cells [3] = assay: Antiproliferative effect on Siha cells, live cell analysis; format: cell-based, human; conditions: Siha 1000 cells/well; for antiproliferative effect: 50 μM, FIG. 2
# Experimental: FIG. 2: live cell analysis of RNPs antiproliferative effect. Siha cells were seeded at 1000 cells/well in a 96 well plate and allowed to adhere overnight. The plate was then washed twice with PBS and replenished with 100 microliter/well fresh medium plus 50 μM of each compound. Images were taken every 12 hours; Growth curves were drawn plotting the percentage of confluence versus time. […] In fact, their growth curves outline a single spindle completely overlapping and masking the one of control untreated cells. Conversely, a distinct anti-proliferative effect is evident in panel B- where the growth curves of RNP 9 Kaempferol (solid squares), RNP 12 Luteolin (solid diamonds), RNP 16 Apigenin (solid circles) and control untreated cells (solid stars) are depicted. […] Each point represents the mean of six independent replicas. Bar width represents the Standard Deviation (SD). Consistent results were also obtained by HeLa and ME-180 cells
# (§5) For antiproliferative effect cells were seeded in 96-well microplates at 1000 cells/per well (i.e.: 30 cell/mm^2), a density allowing exponential growth rate for the subsequent 8-day incubation. After overnight adhesion cell monolayers were washed and replenished with fresh media with different testing molecules, plain medium served as cell growth control.
# (§6) Cell growth was then monitored by automated INCUCTE S3 imaging Systems. Images were acquired at 12-hours intervals. The analysis parameters were as follows: segmentation adjustment=0.9; hole fill <7,000 μm^2; adjusted pixel=0.
# Data for growth curves, anti-clonal and Antiproliferative assays were obtained from at least three independent experiments. Each data point of quantitative anti-proliferative or anti-clonal experiments represents the mean (±SD) of eight independent replicates. Data were analyzed and plotted using Prism 6.0 software (GraphPad Software, San Diego, CA).
# HPV transformed cells [4] = assay: Antiproliferative effect on HPV transformed cells (cell line not stated); format: cell-based, human; conditions: summary statement, isolated compound
# Experimental: as §5, §6
# [5] = system: PC3 prostate cancer cells; conditions: PC3 cells (Lansky E P et al 2005); cited from earlier work
SMILES,clonal inhibition in combination with Apigenin (HeLa cells; HeLa),clonal inhibition in combination with Galangin (HeLa cells; HeLa),"end point clonal assay, clonal inhibition alone (HeLa cells; HeLa)",Anti-clonal effect (HeLa cells; HeLa),anticlonogenic / anti-clonal effect (HPV transformed cells [1]),inhibition at 25 µM (Siha cells [2]; SiHa) [%],antiproliferative effect (Siha cells [3]),antiproliferative effect (HPV transformed cells [4]),IC50 (HPV transformed cells [1]) [µM],IRR (inhibitory relative rate) (HPV transformed cells [1]),also measured
O=C(O)c1cc(O)c(O)c(O)c1 [Gallic acid],,,,,,,,,,,migration of glioma cells (glioma cells): reduce the migration; migration of gastric cancer cells (gastric cancer cells): reduce the migration
COc1cc(/C=C/C(=O)O)ccc1O [Ferulic acid],almost complete clonal inhibition,almost complete clonal inhibition,Neither of them induced any effect,devoid of any significant anticlonogenic effect,devoid of. any direct anticlonogenic activity,,,,,,"clonal inhibition in combination with Chrysin (HeLa cells; 50 μM combined with Chrysin 25 μM, HeLa, FIG. 10-11): almost complete clonal inhibition; synergy with Galangine, Apigenin and Chrysin (HeLa cells; in association, HeLa, FIG. 10-11): synergize; clonal inhibition with Galangin, Chrysin or Apigenin (ME-180 cells): Superimposable results; clonal inhibition in combination (HPV transformed cells [1]; combined with Galangin, Chrysin or Apigenin): a certain grade of clonal inhibition; clonal inhibition with Galangin, Chrysin or Apigenin (Ca-Ski cells): Superimposable results"
O=c1c(O)c(-c2ccc(O)cc2)oc2cc(O)cc(O)c12 [Kaempferol],,,,almost complete suppression of clonal activity,sharp anticlonogenic and antiproliferative effect,~50,"distinct, although milder effect",sharp anticlonogenic and antiproliferative effect,25,2,"clonal efficiency versus control untreated cells (Siha cells [2]; 12.5 μM, alone, Siha, FIG. 4): no difference to control untreated cells; inhibition at 50 µM (Siha cells [3]; Homo sapiens, FIG. 2, read-out: suppression of proliferation): ~40%"
O=C(O)/C=C/c1ccc(O)c(O)c1 [Caffeic acid],almost complete clonal inhibition,almost complete clonal inhibition,neither of them induced any effect,devoid of any significant anticlonogenic effect,devoid of any direct activity,,,,,,"synergistic effect with Galangine and Apigenin (HeLa cells; in association, HeLa, FIG. 9): synergistic effect; reduction of invasiveness [5]: 50%; clonal inhibition in combination (HPV transformed cells [1]; combined with Galangin or Quercetin): a certain grade of clonal inhibition; anticlonogenic / anti-clonal effect (HPV transformed cells [1]; listed as Caffeic): devoid of. any direct anticlonogenic activity"
O=c1cc(-c2ccc(O)c(O)c2)oc2cc(O)cc(O)c12 [Luteolin],,,,almost complete suppression of clonal activity,sharp anticlonogenic and antiproliferative effect,~50,almost complete suppression of proliferation,sharp anticlonogenic and antiproliferative effect,6.25,8,"end-point anti-clonal effect versus control untreated cells (Siha cells [2]; 6.25 μM, alone, SiHa, FIG. 6-8): no difference to control untreated cells; IC50 (HeLa cells; Homo sapiens, HeLa, serial twofold dilutions (Luteolin from 50 μM, Galangin from 100 μM), live cell image analysis, FIG. 3, read-out: CID50 (50% clonal inhibitory dose)): 6.25 µM; inhibition at up to 50 µM (HeLa cells; Homo sapiens, wells D:1-6, serial twofold dilutions of 50 μM, HeLa, FIG. 3, read-out: anti-clonal titration, inhibition in wells D:1-6): ~50%; anti-clonal effect at concentrations above CID50 (HeLa cells; higher concentrations than CID50, HeLa, FIG. 3): completely suppressive; anti-clonal titration, inhibition in wells C:1-6 (HeLa cells; wells C:1-6, serial twofold dilutions of 50 μM, HeLa, FIG. 3): almost complete inhibition; antiproliferative effect (Siha cells [3]; listed as luteolin): sharp antiproliferative effect"
